Structures are written as SMILES.

A word on the IC50: it is the concentration that inhibits the measured activity by half. Higher therefore signals lower potency.

T1 sequence (Q05397 whole entry): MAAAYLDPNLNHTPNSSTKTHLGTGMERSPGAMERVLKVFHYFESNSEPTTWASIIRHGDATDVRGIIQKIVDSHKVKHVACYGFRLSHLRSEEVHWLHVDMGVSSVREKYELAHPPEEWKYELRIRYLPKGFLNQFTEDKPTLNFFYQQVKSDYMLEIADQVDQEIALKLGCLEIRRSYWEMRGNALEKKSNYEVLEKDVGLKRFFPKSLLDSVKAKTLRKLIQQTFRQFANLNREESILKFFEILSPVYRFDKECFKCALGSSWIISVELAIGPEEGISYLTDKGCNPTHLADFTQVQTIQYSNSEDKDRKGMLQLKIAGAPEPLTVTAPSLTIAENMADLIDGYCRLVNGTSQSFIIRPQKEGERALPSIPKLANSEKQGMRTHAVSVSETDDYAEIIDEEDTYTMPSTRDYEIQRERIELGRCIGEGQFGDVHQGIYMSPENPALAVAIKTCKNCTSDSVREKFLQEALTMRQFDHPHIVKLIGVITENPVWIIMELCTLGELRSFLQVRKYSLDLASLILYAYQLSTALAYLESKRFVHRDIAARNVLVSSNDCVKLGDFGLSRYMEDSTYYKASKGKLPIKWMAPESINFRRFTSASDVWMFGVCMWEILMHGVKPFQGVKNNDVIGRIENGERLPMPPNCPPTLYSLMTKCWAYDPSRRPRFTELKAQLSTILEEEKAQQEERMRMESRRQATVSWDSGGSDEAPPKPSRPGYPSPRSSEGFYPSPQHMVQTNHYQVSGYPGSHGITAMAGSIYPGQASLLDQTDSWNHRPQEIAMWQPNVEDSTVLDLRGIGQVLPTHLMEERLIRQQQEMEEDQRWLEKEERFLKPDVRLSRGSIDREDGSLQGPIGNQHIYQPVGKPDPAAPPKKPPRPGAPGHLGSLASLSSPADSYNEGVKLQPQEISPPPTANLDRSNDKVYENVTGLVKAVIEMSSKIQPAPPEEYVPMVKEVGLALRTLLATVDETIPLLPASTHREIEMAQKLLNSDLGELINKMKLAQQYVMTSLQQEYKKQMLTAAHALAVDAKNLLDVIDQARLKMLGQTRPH

The assay has as its target T1, PTK2 (Homo sapiens, UniProt Q05397).
T1 construct: purchased Invitrogen PV3832
As to the kind of experiment: PTK2 enzyme test, Assay 1 (DELFIA, PT60 antibody). The format is biochemical. The settings on record: 1 h pre-incubation, 1 h kinase reaction, values without *. On the procedure: This test uses active PTK2 enzyme (Invitrogen Code PV3832) and poly-Glu-Tyr (4:1, Sigma P-0275) as the kinase substrate. The kinase activity is detected through the phosphorylation of the substrate in a DELFIA™ assay. The phosphorylated substrate is detected with the europium-labelled phosphotyrosine antibody PT60 (Perkin Elmer, No.: AD00400).
In order to determine concentration-activity curves with PTK2-inhibitors the compounds are serially diluted in 10% DMSO/H20 and 10 μL of each dilution are placed in each well of a 96-well microtitre plate (clear plate with a U-shaped base, Greiner No. 650101) (the inhibitors are tested in duplicates) and mixed with 10 μL/well of PTK2 kinase (0.01 μg/well). PTK2 kinase has been correspondingly diluted beforehand with kinase dilution buffer (20 mM TRIS/HCl pH 7.5, 0.1 mM EDTA, 0.1 mM EGTA, 0.286 mM sodium orthovanadate, 10% glycerol with the addition of freshly prepared BSA (fraction V, 1 mg/mL) and DTT (1 mM)). The test compound and the PTK2 kinase are pre-incubated for 1 h at RT and shaken at 500 revolutions per min. The reaction is started by the addition of 10 μL/well poly (Glu,Tyr) substrate (25 μg/well poly (Glu, Tyr), 0.05 μg/well biotinylated poly (Glu,Tyr) dissolved in 250 mM TRIS/HCl pH 7.5, 9 mM DTT)—the final concentration of DMSO is 2%. Then 20 μL of ATP Mix (30 mM TRIS/HCl pH 7.5, 0.02% Brij, 0.2 mM sodium orthovanadate, 10 mM magnesium acetate, 0.1 mM EGTA, 1× phosphatase inhibitor cocktail 1 (Sigma, No.: P2850), 50 μM ATP (Sigma, No.: A3377; 15 mM stock solution)) are added. After 1 h of kinase reaction (the plates are shaken at 500 rpm), the reaction is stopped by the addition of 12 μL/well 100 mM EDTA, pH 8.0 and shaken for a further 5 min at RT (500 rpm). 55 μL of the reaction mixture are transferred into a streptavidin plate (Strepta Well High Bind (transparent, 96-well) made by Roche, No.: 11989685001) and incubated for 1 h at RT (shaking at 500 rpm). Then the microtitre plate is washed three times with 200 μL/well D-PBS (Invitrogen, No. 14190). 100 μL of a solution containing DELFIA Eu-N1 Anti-Phosphotyrosine PT60 antibody (Perkin Elmer, No.: AD0040, diluted 1:2000 in DELFIA test buffer (Perkin Elmer, No.: 1244-111)) is then added and the mixture is incubated for 1 h at RT (shaking at 500 rpm). Then the plate is washed three times with 200 μL/well DELFIA washing buffer (Perkin Elmer, No.: 1244-114), 200 μL/well strengthening solution (Perkin Elmer, No.: 1244-105) are added and the mixture is incubated for 10 min at RT (shaking at 300 rpm).
The time-delayed europium fluorescence is then measured in a microtitre plate reader (VICTOR^3, Perkin Elmer). […] Wells that contain test buffer instead of enzyme are used as a control of the background kinase activity.
The IC50 values are determined from analyses of the concentration activity by iterative calculation with the aid of a sigmoid curve analysis algorithm (FIFTY, based on GraphPAD Prism Version 3.03) with a variable Hill coefficient.
`COc1cc(C(=O)NC2CCN(C)CC2)c(F)cc1Nc1ncc(C(F)(F)F)c(O[C@@H]2CCC[C@H]2NS(=O)(=O)CCl)n1` [Example 45] displayed a half-inhibitory concentration (IC50) of 5 nM. The result for `COc1cc(C(=O)NC2CCN(C)CC2)c(Cl)cc1Nc1ncc(C(F)(F)F)c(O[C@@H]2Cc3ccccc3[C@H]2NS(C)(=O)=O)n1` [Example 87] reads 0.28 nM; that for `COc1cc(C(=O)NC2CCN(C)CC2)ccc1Nc1ncc(C(F)(F)F)c(O[C@@H]2Cc3ccccc3[C@@H]2NC(C)=O)n1` [Example 72], 174 nM; that for `COc1cc(C(=O)NCCN(C)C)c(Cl)cc1Nc1ncc(C(F)(F)F)c(O[C@@H]2CCCC[C@H]2N(C)S(C)(=O)=O)n1` [Example 109], 0.35 nM. As for `COc1cc(C(=O)NCCCN(C)C)c(F)cc1Nc1ncc(C(F)(F)F)c(O[C@@H]2Cc3ccccc3[C@H]2N(C)S(C)(=O)=O)n1` [Example 8], the figure is 4 nM. The result for `COc1cc(C(=O)NC2CCN(C)CC2)ccc1Nc1ncc(C(F)(F)F)c(O[C@@H]2Cc3ccccc3[C@H]2NC(C)=O)n1` [Example 68, 4-[4-((1R,2R)-1-acetylamino-indan-2-yloxy)-5-trifluoromethyl-pyrimidin-2-ylamino]-3-methoxy-N-(1-methyl-piperidin-4-yl)-benzamide] reads 2 nM.

Take `COc1cc(C(=O)NN2CCN(C)CC2)c(F)cc1Nc1ncc(C(F)(F)F)c(O[C@@H]2CCC[C@H]2NS(C)(=O)=O)n1` [Example 98]: inhibition was half-maximal at 4 nM (IC50). As to `COc1cc(C(=O)N(C)C)c(F)cc1Nc1ncc(Cl)c(O[C@@H]2Cc3ccccc3[C@H]2N(C)S(C)(=O)=O)n1` [Example 54], the IC50 was 92 nM. In turn, `COc1cc(C(=O)NN2CCN(C)CC2)ccc1Nc1ncc(C(F)(F)F)c(O[C@@H]2Cc3ccccc3[C@H]2N(C)S(C)(=O)=O)n1` [Example 19] registered an IC50 of 4 nM. As for `COc1cc(C(=O)NCCN(C)C)ccc1Nc1ncc(C(F)(F)F)c(O[C@@H]2Cc3ccccc3[C@H]2N(C)S(C)(=O)=O)n1` [Example 14], the figure is 3 nM. The result for `COc1cc(C(=O)NC2CCN(C)CC2)c(Cl)cc1Nc1ncc(C(F)(F)F)c(O[C@@H]2CCC[C@H]2N(C)S(C)(=O)=O)n1` [Example 102, 2-chloro-4-{4-[(1R,2R)-2-(methanesulphonyl-methyl-amino)-cyclopentyloxy]-5-trifluoromethyl-pyrimidin-2-ylamino}-5-methoxy-N-(1-methyl-piperidin-4-yl)-benzamide] reads 0.61 nM; that for `COc1cc(C(=O)NCCN(C)C)ccc1Nc1ncc(C(F)(F)F)c(O[C@@H]2Cc3ccccc3[C@H]2NS(C)(=O)=O)n1` [Example 95], 0.56 nM.

`COc1cc(C(=O)NC2CCN(C)CC2)c(F)cc1Nc1ncc(C(F)(F)F)c(O[C@@H]2CCCC[C@H]2NS(C)(=O)=O)n1` [Example 105] yielded an IC50 of 0.39 nM. The result for `COc1cc(C(=O)NCC(O)CO)ccc1Nc1ncc(C(F)(F)F)c(O[C@@H]2Cc3ccccc3[C@H]2N(C)S(C)(=O)=O)n1` (some centres unmarked) [Example 12] reads 4 nM; that for `COc1cc(C(=O)N[C@H]2CC[C@H](O)CC2)c(F)cc1Nc1ncc(Cl)c(O[C@@H]2Cc3ccccc3[C@H]2N(C)S(C)(=O)=O)n1` [Example 55], 6 nM; that for `COc1cc(C(=O)NN2CCN(C)CC2)ccc1Nc1ncc(C(F)(F)F)c(O[C@@H]2CCCC[C@H]2N(C)S(C)(=O)=O)n1` [Example 77, 4-{4-[(1R,2R)-2-(methanesulphonyl-methyl-amino)-cyclohexyloxy]-5-trifluoromethyl-pyrimidin-2-ylamino}-3-methoxy-N-(4-methyl-piperazin-1-yl)-benzamide], 0.3 nM. Consider `COc1cc(C(=O)NCCN(C)C)c(Cl)cc1Nc1ncc(C(F)(F)F)c(O[C@@H]2CCCC[C@H]2NS(C)(=O)=O)n1` [Example 108], for which 0.44 nM corresponded to half-maximal inhibition (IC50). As for `COc1ccc(C(=O)NN2CCN(C)CC2)cc1Nc1ncc(C(F)(F)F)c(O[C@@H]2Cc3ccccc3[C@H]2N(C)S(C)(=O)=O)n1` [Example 80], the figure is 0.41 nM. The result for `COc1ccc(C(=O)NCCN(C)C)cc1Nc1ncc(C(F)(F)F)c(O[C@@H]2Cc3ccccc3[C@H]2N(C)S(C)(=O)=O)n1` [Example 81] reads 0.31 nM; that for `COc1cc(C(=O)NCCN2CCN(C)CC2)ccc1Nc1ncc(C(F)(F)F)c(O[C@@H]2Cc3ccccc3[C@H]2N(C)S(C)(=O)=O)n1` [Example 16], 4 nM. The result for `COc1cc(C(=O)N[C@H]2CCN(C)C[C@@H]2OC)ccc1Nc1ncc(C(F)(F)F)c(O[C@@H]2Cc3ccccc3[C@H]2N(C)S(C)(=O)=O)n1` [Example 29, 4-{4-[(1R,2R)-1-(methanesulphonyl-methyl-amino)-indan-2-yloxy]-5-trifluoromethyl-pyrimidin-2-ylamino}-3-methoxy-N-((3S,4S)-3-methoxy-1-methyl-piperidin-4-yl)-benzamide] reads 3 nM; that for `COc1cc(C(=O)NN2CCN(C)CC2)c(Cl)cc1Nc1ncc(Cl)c(O[C@@H]2Cc3ccccc3[C@H]2N(C)S(C)(=O)=O)n1` [Example 63], 3 nM; that for `CS(=O)(=O)N[C@@H]1CCC[C@H]1Oc1nc(Nc2ccc3ncsc3c2)ncc1C(F)(F)F` [Example 97], 2 nM. Molecule `COc1cc(C(=O)NN2CCN(C)CC2)c(F)cc1Nc1ncc(C(F)(F)F)c(O[C@@H]2CCC[C@H]2N(C)S(C)(=O)=O)n1` [Example 101, 2-fluoro-4-{4-[(1R,2R)-2-(methanesulphonyl-methyl-amino)-cyclopentyloxy]-5-trifluoromethyl-pyrimidin-2-ylamino}-5-methoxy-N-(4-methyl-piperazin-1-yl)-benzamide] showed a 50% inhibitory concentration (IC50) of 0.3 nM. The result for `COc1cc(C(=O)NC2CCN(C)CC2)c(F)cc1Nc1ncc(C(F)(F)F)c(O[C@@H]2CCCC[C@H]2N(C)S(C)(=O)=O)n1` [Example 75, 2-fluoro-4-{4-[(1R,2R)-2-(methanesulphonyl-methyl-amino)-cyclohexyloxy]-5-trifluoromethyl-pyrimidin-2-ylamino}-5-methoxy-N-(1-methyl-piperidin-4-yl)-benzamide] reads 0.31 nM; that for `COc1cc(C(=O)NC2CCN(C)CC2)c(Cl)cc1Nc1ncc(Cl)c(O[C@@H]2CCC[C@H]2N(C)S(C)(=O)=O)n1` [Example 84, 2-chloro-4-{5-chloro-4-[(1R,2R)-2-(methanesulphonyl-methyl-amino)-cyclopentyloxy]-pyrimidin-2-ylamino}-5-methoxy-N-(1-methyl-piperidin-4-yl)-benzamide], 0.32 nM; that for `COc1cc(C(=O)N[C@H]2CC[C@H](N3CCN(CC4CC4)CC3)CC2)c(F)cc1Nc1ncc(Cl)c(O[C@@H]2Cc3ccccc3[C@H]2N(C)S(C)(=O)=O)n1` [Example 58], 6 nM. As for `COc1cc(C(=O)NCCN2CCN(C)CC2)c(Cl)cc1Nc1ncc(Cl)c(O[C@@H]2Cc3ccccc3[C@H]2N(C)S(C)(=O)=O)n1` [Example 34], the figure is 2 nM. The result for `COc1cc(C(=O)NC2CCN(C)CC2)c(F)cc1Nc1ncc(C(F)(F)F)c(O[C@@H]2Cc3ccccc3[C@H]2N(C)S(C)(=O)=O)n1` [Example 25, 2-fluoro-4-{4-[(1R,2R)-1-(methanesulphonyl-methyl-amino)-indan-2-yloxy]-5-trifluoromethyl-pyrimidin-2-ylamino}-5-methoxy-N-(1-methyl-piperidin-4-yl)-benzamide] reads 2 nM.
